The structures appear in SMILES notation. Active and inactive are the calls of the source. The calls are words filed in the database; no cut-off is given here.

The target in assay [1] is Focal adhesion kinase 1 (Mus musculus) (UniProt P34152). Description: Inhibition of FAK phosphorylation at Tyr397 residue in mouse 4T1 cells harbouring mCherry red fluorescent protein at 0.1 to 1 uM incubated for 1 hr by immunoblotting analysis. In kind it is cell-based. Conditions: dose 0.1-1 µM. In general terms: In western blotting, separated proteins are transferred to a membrane and probed.

Assay [2] relates to 4T1. Description: Inhibition of Src phosphorylation at Tyr416 residue in mouse 4T1 cells harbouring mCherry red fluorescent protein incubated for 1 hr by immunoblotting analysis. To be noted: dose 0.1-1 µM. Type of assay: cell-based.
Assay [3] deals with 4T1. The assay can be described thus: Inhibition of cell adhesion to fibronectin in mouse 4T1 cells at 0.4 uM incubated for 4 hrs by […]. In kind it is functional, cell-based.

Chain of Focal adhesion kinase 1 (Mus musculus) (P34152 whole entry): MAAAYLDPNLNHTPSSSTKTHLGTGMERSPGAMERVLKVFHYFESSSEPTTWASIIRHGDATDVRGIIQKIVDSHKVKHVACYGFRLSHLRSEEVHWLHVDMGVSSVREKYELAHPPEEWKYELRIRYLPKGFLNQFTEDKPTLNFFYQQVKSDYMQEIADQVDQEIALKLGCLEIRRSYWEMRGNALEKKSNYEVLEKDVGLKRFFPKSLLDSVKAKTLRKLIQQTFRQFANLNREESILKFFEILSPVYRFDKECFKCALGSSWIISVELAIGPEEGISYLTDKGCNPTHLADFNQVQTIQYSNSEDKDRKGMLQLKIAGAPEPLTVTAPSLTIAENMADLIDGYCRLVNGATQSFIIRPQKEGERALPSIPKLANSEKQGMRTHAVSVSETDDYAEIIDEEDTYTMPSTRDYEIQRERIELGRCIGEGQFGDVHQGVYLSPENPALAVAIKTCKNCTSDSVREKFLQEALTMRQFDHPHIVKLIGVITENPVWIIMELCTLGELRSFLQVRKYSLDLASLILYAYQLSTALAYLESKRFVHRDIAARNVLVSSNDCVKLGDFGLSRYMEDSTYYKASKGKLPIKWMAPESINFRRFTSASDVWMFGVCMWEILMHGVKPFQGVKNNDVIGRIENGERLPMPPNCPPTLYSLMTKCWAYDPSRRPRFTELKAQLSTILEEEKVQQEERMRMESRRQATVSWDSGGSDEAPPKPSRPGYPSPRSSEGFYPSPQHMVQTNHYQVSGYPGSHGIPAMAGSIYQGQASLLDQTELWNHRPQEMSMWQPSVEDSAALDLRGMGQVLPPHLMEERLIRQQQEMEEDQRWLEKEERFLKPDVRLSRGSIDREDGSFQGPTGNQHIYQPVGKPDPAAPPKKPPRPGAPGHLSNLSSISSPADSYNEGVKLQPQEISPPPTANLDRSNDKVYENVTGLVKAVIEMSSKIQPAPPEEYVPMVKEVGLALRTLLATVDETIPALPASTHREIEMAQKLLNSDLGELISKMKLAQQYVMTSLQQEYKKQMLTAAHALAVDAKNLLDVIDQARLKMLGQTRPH

Take `Cc1nc(Nc2ncc(C(=O)Nc3c(C)cccc3Cl)s2)cc(N2CCN(CCO)CC2)n1`: the inhibition entry (in assay [1]; in the assay with 4T1 [3]) was “inactive” each time. In the assay on 4T1 [2], the inhibition entry is “Dose-Dependent Effect”.

(Values after ChEMBL document CHEMBL5715945 (Cancer Biol Ther, 2010).)
